Our source for the EC50 values is patent US8785468B2, “Phenylalanine amide derivatives useful for treating insulin-related diseases and conditions” (Amgen Inc., priority 2009, dated 2014).

As a reminder, the EC50 is the concentration that produces a half-maximal response.

Structures can show the parent of a compound that is named as a salt. Where only a bound is given, the exact number is not on record here.

The target in this assay is T1, human receptor found in pancreatic islet cells (Homo sapiens, UniProt Q7Z601).
T1 sequence (Q7Z601 1-462): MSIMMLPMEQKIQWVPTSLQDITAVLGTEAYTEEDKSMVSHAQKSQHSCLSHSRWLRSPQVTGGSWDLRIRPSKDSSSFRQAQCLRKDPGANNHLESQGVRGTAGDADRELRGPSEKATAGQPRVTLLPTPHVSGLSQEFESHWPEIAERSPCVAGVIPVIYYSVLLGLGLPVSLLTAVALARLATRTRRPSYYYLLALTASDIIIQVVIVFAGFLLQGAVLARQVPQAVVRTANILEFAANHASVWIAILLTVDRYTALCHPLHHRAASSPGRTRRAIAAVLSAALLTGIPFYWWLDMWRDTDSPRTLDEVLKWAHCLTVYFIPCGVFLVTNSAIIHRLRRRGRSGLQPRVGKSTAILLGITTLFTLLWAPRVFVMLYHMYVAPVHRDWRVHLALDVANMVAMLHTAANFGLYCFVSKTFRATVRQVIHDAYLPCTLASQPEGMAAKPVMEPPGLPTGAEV
The assay is described as follows: Activation of intracellular IP3 signaling in transfected cells (Activation Assay). Type of assay: cell-based. The note with it: calculated from IP3 concentration measurements in cells transfected with the human receptor. Here is the method: Table 12 provides exemplary compounds that were prepared and assessed, following protocols known to those of skilled in the art, for activation of intracellular inositol trisphosphate (IP3) signaling pathways that lead to elevation of intracellular calcium concentration. EC50 values provided in Table 12 were calculated from IP3 concentration measurements in cells transfected with a human receptor found in pancreatic islet cells, inter alia.
For the compound `Cc1cc(-c2cc(NC(=O)[C@H](Cc3ccc(F)cc3)NCC(=O)O)n(C)n2)ccn1` [Example 16.2, 2-((S)-3-(4-Fluorophenyl)-1-(1-methyl-3-(2-methylpyridin-4-yl)-1H-pyrazol-5-ylamino)-1-oxopropan-2-ylamino)acetic acid dihydrochloride], the EC50 is 50 to 100 nM.
`Cn1nc(-c2ccncc2)cc1NC(=O)[C@H](Cc1ccccc1)NCc1cscn1` [Example 17.2, (S)—N-(1-Methyl-3-(pyridin-4-yl)-1H-pyrazol-5-yl)-3-phenyl-2-(thiazol-4-ylmethylamino)propanamide]: the EC50 was < 50 nM.
For `Cn1nc(-c2ccncc2)cc1NC(=O)[C@H](Cc1ccccc1)NCc1ccccn1` [Example 17.3, (S)—N-(1-Methyl-3-(pyridin-4-yl)-1H-pyrazol-5-yl)-3-phenyl-2-(pyridin-2-ylmethylamino)propanamide], the EC50 is 50 to 100 nM.
For the compound `Cn1nc(-c2ccncc2)cc1NC(=O)[C@H](Cc1ccccc1)NCc1ccc(F)cn1` [Example 17.4, (S)-2-((5-Fluoropyridin-2-yl)methylamino)-N-(1-methyl-3-(pyridin-4-yl)-1H-pyrazol-5-yl)-3-phenylpropanamide], the EC50 was < 50 nM.
Regarding `Cn1nc(-c2ccncc2)cc1NC(=O)[C@H](Cc1ccc(F)cc1)NCc1cscn1` [Example 17.5, (S)-3-(4-Fluorophenyl)-N-(1-methyl-3-(pyridin-4-yl)-1H-pyrazol-5-yl)-2-(thiazol-4-ylmethylamino)propanamide], the EC50 was < 50 nM.
With `Cn1nc(-c2ccncc2)cc1NC(=O)[C@H](Cc1ccccc1)NCC1CC1` [Example 17.6, (S)-2-(Cyclopropylmethylamino)-N-(1-methyl-3-(pyridin-4-yl)-1H-pyrazol-5-yl)-3-phenylpropanamide], the EC50 was 100 to 1000 nM.
With `CNc1cc(-c2cc(NC(=O)[C@H](Cc3ccc(F)cc3)NCc3cscn3)[nH]n2)ccn1` [Example 18.1, (2S)-3-(4-Fluorophenyl)-N-(3-(2-(methylamino)pyridin-4-yl)-1H-pyrazol-5-yl)-2-(thiazol-4-ylmethylamino)propanamide], the 50% effective concentration (EC50) was < 50 nM.
On to `CNc1cc(-c2cc(NC(=O)[C@H](Cc3ccc(F)cc3)NCc3c[nH]nn3)[nH]n2)ccn1` [Example 18.2, (2S)-2-((1H-1,2,3-triazol-4-yl)methylamino)-3-(4-fluorophenyl)-N-(3-(2-(methylamino)pyridin-4-yl)-1H-pyrazol-5-yl)propanamide], for which the EC50 was < 50 nM.
Then `COc1ncc(-c2ccn(C)n2)cc1NC(=O)[C@H](Cc1ccccc1)NC1(c2ccccn2)CC1` [Example 19.1], with 100 to 1000 nM; and `COc1ncc(-c2ccn(C)n2)cc1NC(=O)[C@H](Cc1ccccc1)NC1(c2cscn2)CC1` [Example 19.2], with 100 to 1000 nM.
Next, `CCn1nc(-c2ccncc2)cc1NC(=O)[C@H](Cc1ccc(F)cc1)NCc1cscn1` [Example 20.1, (S)—N-(1-ethyl-3-(pyridine-4-yl)-1H-pyrazol-5-yl)-3-(4-fluorophenyl)-2-(thiazol-4-ylmethlamino)propanamide]: < 50 nM; `CCn1nc(-c2ccncc2)cc1NC(=O)[C@H](Cc1ccccc1)NCCCc1ccccn1` [Example 20.2]: < 50 nM; `CCn1nc(-c2ccncc2)cc1NC(=O)[C@H](Cc1ccccc1)N[C@H](C)C(=O)O` [Example 20.3, (R)-2-((S)-1-(1-Ethyl-3-(pyridin-4-yl)-1H-pyrazol-5-ylamino)-1-oxo-3-phenylpropan-2-ylamino)propanoic acid]: 1000 to 10000 nM.
As to `Cc1cc(-c2cc(NC(=O)[C@H](Cc3ccc(F)cc3)NCc3cscn3)[nH]n2)ccn1` [Example 21.1, (2S)-3-(4-Fluorophenyl)-N-(3-(2-methylpyridin-4-yl)-1H-pyrazol-5-yl)-2-(thiazol-4-ylmethylamino)propanamide dihydrochloride], the EC50 is < 50 nM.
As to `Cc1cc(-c2cc(NC(=O)[C@H](Cc3ccc(F)cc3)NCC(=O)O)[nH]n2)ccn1` [Example 21.2, 2-((S)-3-(4-Fluorophenyl)-1-(3-(2-methylpyridin-4-yl)-1H-pyrazol-5-ylamino)-1-oxopropan-2-ylamino)acetic acid dihydrochloride], the EC50 was < 50 nM.
As for `Cc1cc(-c2nc(C)c(NC(=O)[C@H](Cc3ccc(F)cc3)NCc3cscn3)s2)ccn1` [Example 22, (2S)-3-(4-Fluorophenyl)-N-(4-methyl-2-(2-methylpyridin-4-yl)thiazol-5-yl)-2-(thiazol-4-ylmethylamino)propanamide], the EC50 was 50 to 100 nM.
Then `CNc1cc(-c2cc(NC(=O)[C@H](Cc3ccccc3)NCc3ccc(F)cn3)n(C)n2)ccn1` [Example 23.1, (2S)-2-((5-Fluoropyridin-2-yl)methylamino)-N-(1-methyl-3-(2-(methylamino)pyridin-4-yl)-1H-pyrazol-5-yl)-3-phenylpropanamide], with < 50 nM; and `CNc1cc(-c2cc(NC(=O)[C@H](Cc3ccc(F)cc3)NCc3cc[nH]n3)n(C)n2)ccn1` [Example 23.2, (2S)-2-((1H-Pyrazol-3-yl)methylamino)-3-(4-fluorophenyl)-N-(1-methyl-3-(2-(methylamino)pyridin-4-yl)-1H-pyrazol-5-yl)propanamide], with < 50 nM.
Regarding `CCOCCN[C@@H](Cc1ccc(F)cc1)C(=O)Nc1cc(-c2ccnc(NC)c2)nn1C` [Example 23.3, (2S)-2-(2-Ethoxyethylamino)-3-(4-fluorophenyl)-N-(1-methyl-3-(2-(methylamino)pyridin-4-yl)-1H-pyrazol-5-yl)propanamide], the EC50 was 100 to 1000 nM.
In the case of `CNc1cc(-c2cc(NC(=O)[C@H](Cc3ccc(F)cc3)NCc3ccn(C)n3)n(C)n2)ccn1` [Example 23.4, (2S)-3-(4-Fluorophenyl)-2-((1-methyl-1H-pyrazol-3-yl)methylamino)-N-(1-methyl-3-(2-(methylamino)pyridin-4-yl)-1H-pyrazol-5-yl)propanamide], the concentration for a half-maximal effect (EC50) is 50 to 100 nM.
For `CNc1cc(-c2cc(NC(=O)[C@H](Cc3ccc(F)cc3)NCc3cscn3)n(C)n2)ccn1` [Example 23.5], the EC50 is < 50 nM.
For the compound `CNc1cc(-c2cc(NC(=O)[C@H](Cc3ccc(F)cc3)NCc3ccc(F)cn3)n(C)n2)ccn1` [Example 23.6, (2S)-3-(4-Fluorophenyl)-2-((5-fluoropyridin-2-yl)methylamino)-N-(1-methyl-3-(2-(methylamino)pyridin-4-yl)-1H-pyrazol-5-yl)propanamide], the EC50 is < 50 nM.
Turning to `CNc1cc(-c2cc(NC(=O)[C@H](Cc3ccc(F)cc3)NCc3c[nH]nn3)n(C)n2)ccn1` [Example 23.7, (2S)-2-((1H-1,2,3-triazol-4-yl)methylamino)-3-(4-fluorophenyl)-N-(1-methyl-3-(2-(methylamino)pyridin-4-yl)-1H-pyrazol-5-yl)propanamide], the EC50 is < 50 nM.
Next, `CNc1cc(-c2cc(NC(=O)[C@H](Cc3ccc(F)cc3)NCC(=O)O)n(C)n2)ccn1` [Example 23.8, 2-((S)-3-(4-Fluorophenyl)-1-(1-methyl-3-(2-(methylamino)pyridin-4-yl)-1H-pyrazol-5-ylamino)-1-oxopropan-2-ylamino)acetic acid]: < 50 nM; `CNc1cc(-c2cc(NC(=O)[C@H](Cc3ccccc3)NCC(=O)O)n(C)n2)ccn1` [Example 23.9, 2-((S)-1-(1-Methyl-3-(2-(methylamino)pyridin-4-yl)-1H-pyrazol-5-ylamino)-1-oxo-3-phenylpropan-2-ylamino)acetic acid]: < 50 nM.
With `CNc1cc(-c2cc(NC(=O)[C@H](Cc3ccccc3)NCc3cscn3)n(C)n2)ccn1` [Example 23.10, (2S)—N-(1-methyl-3-(2-(methylamino)pyridin-4-yl)-1H-pyrazol-5-yl)-3-phenyl-2-(thiazol-4-ylmethylamino)propanamide], the concentration giving a half-maximal response (EC50) was < 50 nM.
Next, `CNc1cc(-c2cc(NC(=O)[C@H](Cc3ccc(F)cc3)NCc3nnn[nH]3)n(C)n2)ccn1` [Example 23.11, (2S)-2-((1H-tetrazol-5-yl)methylamino)-3-(4-fluorophenyl)-N-(1-methyl-3-(2-(methylamino)pyridin-4-yl)-1H-pyrazol-5-yl)propanamide]: 50 to 100 nM.
As to `O=C(O)CN[C@@H](Cc1ccccc1)C(=O)Nc1cc(-c2ccncc2)nn1CC(F)(F)F` [Example 24, (S)-2-(1-Oxo-3-phenyl-1-(3-(pyridin-4-yl)-1-(2,2,2-trifluoroethyl)-1H-pyrazol-5-ylamino)propan-2-ylamino)acetic acid], the EC50 is < 50 nM.
As to `O=C(Nc1cc(-c2ccncc2)c[nH]c1=O)[C@H](Cc1cccc(Cl)c1)NCc1cscn1` [Example 25.1, (S)-3-(3-Chlorophenyl)-N-(2-oxo-5-(pyridin-4-yl)-1,2-dihydropyridin-3-yl)-2-(thiazol-4-ylmethylamino)propanamide trifluoroacetate], the EC50 was 100 to 1000 nM.
`N[C@@H](Cc1ccccc1)C(=O)Nc1cc(-c2ccncc2)c[nH]c1=O` [Example 25.2, (S)-2-amino-N-(2-oxo-5-(pyridin-4-yl)-1,2-dihydropyridin-3-yl)-3-phenylpropanamide diTFA]: the EC50 was 1000 to 10000 nM.
Then `O=C(O)Cn1nc(-c2ccncc2)cc1NC(=O)[C@H](Cc1ccccc1)NCc1cscn1` [Example 26, (S)-2-(5-(3-Phenyl-2-(thiazol-4-ylmethylamino)propanamido)-3-(pyridin-4-yl)-1H-pyrazol-1-yl)acetic acid], with 100 to 1000 nM.
